Where two headings read alike, the source gives them in different places.
How the values were obtained:
[1] = cited from earlier work
[2] = cited from earlier work; remark: listed apart in the source
[3] = Non-clinical drug–drug interaction / oral pharmacokinetic study in Sprague–Dawley rats; format: in vivo, rat; settings: for AUC(0-inf) / CL/F / Cmax / Tmax / half-life: male, Sprague-Dawley, plasma
Experimental: Male Sprague–Dawley (SD) rats, 7 weeks old (180–210 g), were purchased from Hana Biotech (Pyeongtaek, Republic of Korea). The rats were kept in a room with a relative humidity of 50–60%, a temperature of 21 ± 2 °C, and a 12 h light/dark cycle and were acclimatized to these conditions for a week. The protocol for these experiments was approved by Inje University’s Animal Care Committee (Inje 2022-012, Gimhae, Republic of Korea).
The drug was orally administered via a feeding tube, employing a total dosing volume of 5 mL/kg across all groups. Blood samples (approximately 200 μL) were collected from the jugular vein at 0.25, 0.5, 1, 2, 3, 4, 6, 8, 12, and 24 h post-dose. […] The blood samples were promptly centrifuged at 15,000 rpm for 5 min at 4 °C. The resulting plasma was stored at -70 °C until HPLC or LC-MS/MS analysis.
The calculated pharmacokinetic parameters included the following: area under the time–plasma concentration curve (AUC) between from0 to infinity (AUCinf); maximum plasma concentration (Cmax); time to reach maximum concentration (Tmax); terminal half-life (t1/2); oral clearance (CL/F). Pharmacokinetic parameters are expressed as the mean ± standard deviation (SD). For statistical analysis, a Student’s t-test was performed using GraphPad Prism software (San Diego, CA, USA) with a significance threshold of less than 0.05.
The LC-MS/MS system consisted of an Agilent 6490 triple quadrupole mass spectroscopy system and a 1290 infinity HPLC system (Agilent Technologies, Santa Clara, CA, USA). The separation of compounds was accomplished by a reversed-phase column (Synergi Polar-RP 80 Å, 150 × 2.0 mm, 4 μm, Phenomenex, Torrance, CA, USA) with a security guard. […] Multiple reaction monitoring (MRM) modes were used for the quantitative study of the compound’s precursor ion and product ion transitions. […] In addition, 1′-hydroxy midazolam was analyzed under the following conditions. The mobile phase was a mixture of 0.1% formic acid in water and ACN (50:50 v/v), with a flow rate of 0.2 mL/min. The column temperature was kept constant at 25 °C. The following ion values (m/z) were obtained by monitoring the transitions: 1′-hydroxy midazolam, 342.0 → 203.1; phenacetin (IS), 180.0 → 162.2. The data analysis was achieved using MassHunter software version A.06.00 (Agilent Technologies, Santa Clara, CA, USA).
The HPLC system included a degasser pump (L-2130), a column oven (L-2300), an autosampler (L-2200), and a diode array detector (L-2455). The analysis was carried out using the software Hitachi LaChrom D-2000 Elite (Merck-Hitachi, Tokyo, Japan). The separation was accomplished using a reversed-phase column (Synchronis C18 150 × 4.6 mm, 5 μm, Thermo Scientific, Waltham, MA, USA) with a guard column (security guard C18 4 × 2.0 mm, Phenomenex, Torrance, CA, USA). The mobile phase was comprised of phases A (ACN) and B (0.015 M potassium phosphate monobasic (KH2PO4) with 2.8 mM triethylamine in water). The mobile phase was A:B = 60:40, with a flow rate of 1.5 mL/min. The temperature of the column oven controller was maintained at 40 °C, and 50 μL of sample was injected into the system.

[4] = cited from earlier work; remark: listed apart in the source
[5] = cited from earlier work; remark: listed apart in the source
CYP3A4 = settings: nicardipine, cited from earlier work
[6] = cited from earlier work; remark: listed apart in the source
hCYP3A5 = tested on: hCYP3A5; design: method as in PMID 22496391; settings: saxagliptin, cited from earlier work
[7] = target: T1, recombinant rat CYP3A2 (rCYP3A2) (Rattus norvegicus, UniProt P05183); assay: Saxagliptin metabolic stability with recombinant rat CYP3A2; format: in vitro ADME; settings: in-house data
T1 construct: purchased Xenotech (Lenexa, KS, USA)
T1 sequence (P05183 1-504): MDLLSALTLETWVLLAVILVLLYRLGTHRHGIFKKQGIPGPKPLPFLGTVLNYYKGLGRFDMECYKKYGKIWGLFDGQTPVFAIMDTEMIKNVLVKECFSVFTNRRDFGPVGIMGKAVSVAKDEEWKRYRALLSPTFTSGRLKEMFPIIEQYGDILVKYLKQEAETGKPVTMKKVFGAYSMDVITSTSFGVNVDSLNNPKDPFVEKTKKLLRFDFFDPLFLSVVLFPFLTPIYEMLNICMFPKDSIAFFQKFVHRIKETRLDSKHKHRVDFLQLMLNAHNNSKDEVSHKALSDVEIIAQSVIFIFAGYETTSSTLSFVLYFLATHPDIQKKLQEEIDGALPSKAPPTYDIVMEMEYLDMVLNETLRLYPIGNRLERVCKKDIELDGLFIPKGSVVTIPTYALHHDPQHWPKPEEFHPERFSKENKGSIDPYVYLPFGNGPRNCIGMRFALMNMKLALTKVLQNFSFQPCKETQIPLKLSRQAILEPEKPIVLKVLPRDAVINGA
Experimental: (§1) After initiating the reaction by adding NADPH solution, the sampling was carried out at 37 °C for 0, 5, 10, 20, and 30 min in triplicate and stopped with methanol containing 200 ng/mL tolbutamide as an internal standard (IS) for HPLC analysis.

CYP3A2 = target: T2, CYP3A2 (Rattus norvegicus, UniProt P05183); assay: as above; format: in vitro ADME; settings: rat, recombinant rat CYP3A2, pH 7.4; read-out: half-life after incubation with rCYP3A2 reaction mixture
T2 construct: purchased Xenotech (Lenexa, KS, USA)
T2 sequence (P05183 1-504): T1 sequence (P05183 1-504)
Experimental: as §1

[8] = saxagliptin, cited from earlier work
hCYP3A4 = tested on: hCYP3A4; design: method as in PMID 22496391; settings: saxagliptin, cited from earlier work
[9] = nicardipine, input of rat and human models
[10] = nicardipine, rat and human models
[11] = saxagliptin, human PBPK model input
[12] = saxagliptin, rat PBPK model input

## COC(=O)C1=C(C)NC(C)=C(C(=O)OCCN(C)Cc2ccccc2)C1c1cccc([N+](=O)[O-])c1 (centres unmarked) [nicardipine]
[1]; nicardipine, human po 40 mg
  AUCinf observed: 163 ng·h/mL
  Cmax observed: 58.8 ng/mL
[2]; nicardipine, human PBPK model input
  Fraction unbound, human, input value: […]
[2]; nicardipine, human plasma
  Fraction unbound, human, reference value: […]
[3]; rat, po, 15 mg/kg, AUCinf of nicardipine, 15 mg/kg alone, mean ± SD
  AUC(0-inf): 408 ± 121 ng·h/mL
[3]; rat, po, 15 mg/kg, CL/F of nicardipine, 15 mg/kg alone, mean ± SD
  CL/F: […]
[3]; rat, po, 15 mg/kg, Cmax of nicardipine, 15 mg/kg alone, mean ± SD
  Cmax: 132 ± 35.3 ng/mL
[3]; rat, po, 15 mg/kg, Tmax of nicardipine, 15 mg/kg alone, mean ± SD
  Tmax: 0.357 ± 0.134 h
[3]; rat, po, 15 mg/kg, t1/2 of nicardipine, 15 mg/kg alone, mean ± SD
  half-life: 5.76 ± 1.45 h
[4]; nicardipine, rat PBPK model input
  Fraction unbound, rat, input value: 0.084
[4]; nicardipine, rat plasma
  Fraction unbound, rat, reference value: 0.084
[5]; nicardipine, base, input of rat and human models
  pKa (compound type), input value: 8.1 (base)
[5]; nicardipine, base, rat and human models
  pKa (compound type), reference value: 8.1 (base)
[5]; [9]
  Lipophilicity, input value: 4.6 logD7.4
[5]; nicardipine, pH 7, input of rat and human models
  Solubility (ref-pH), input value: 7.9 (pH 7) mg/mL
[5]; nicardipine, pH 7, rat and human models
  Solubility (ref-pH), reference value: 7.9 (pH 7) mg/mL
[5]; [10]
  Lipophilicity, reference value: 4.6 logD7.4
CYP3A4; read-out: Ki CYP3A4, input value, human PBPK model input
  Ki: […]
CYP3A4; read-out: Ki CYP3A4, reference value, human
  Ki: […]
[6]; [9]
  Specific intestinal permeability, input value: […]
[6]; [10]
  Specific intestinal permeability, reference value: […]

## N#C[C@@H]1C[C@@H]2C[C@@H]2N1C(=O)[C@@H](N)C12CC3CC(CC(O)(C3)C1)C2 [saxagliptin]
[1]; saxagliptin, human po 2.5 mg
  AUCinf observed: 49.1 ng·h/mL
  Cmax observed: 7.89 ng/mL
  t1/2 observed: 7.21 h
[1]; [11]
  Renal clearance, human, input: 1.9 mL/min/kg
[1]; saxagliptin, human
  Renal clearance, human, reference: 1.9 mL/min/kg
[2]; [11]
  Fraction unbound, human, input: 1
[2]; saxagliptin, human
  Fraction unbound, human, reference: 1
[3]; rat, po, 5 mg/kg, AUCinf of saxagliptin, alone, SXG 5 mg/kg alone, mean ± SD
  AUC(0-inf): 156 ± 22.9 ng·h/mL
[3]; rat, po, 5 mg/kg, AUCinf of saxagliptin, co-administered with nicardipine, rat, po, SXG 5 mg/kg + NCD 15 mg/kg, mean ± SD
  AUC(0-inf): 408 ± 213 ng·h/mL
[3]; rat, po, 5 mg/kg, CL/F of saxagliptin, alone, SXG 5 mg/kg alone, mean ± SD
  CL/F: 542 mL/min/kg
[3]; rat, po, 5 mg/kg, CL/F of saxagliptin, co-administered with nicardipine, rat, po, SXG 5 mg/kg + NCD 15 mg/kg, mean ± SD
  CL/F: 238 mL/min/kg
[3]; rat, po, 5 mg/kg, Cmax of saxagliptin, alone, SXG 5 mg/kg alone, mean ± SD
  Cmax: 98.5 ± 15.1 ng/mL
[3]; rat, po, 5 mg/kg, Cmax of saxagliptin, co-administered with nicardipine, rat, po, SXG 5 mg/kg + NCD 15 mg/kg, mean ± SD
  Cmax: 281 ± 147 ng/mL
[3]; rat, po, 5 mg/kg, Tmax of saxagliptin, alone, SXG 5 mg/kg alone, mean ± SD
  Tmax: 0.417 ± 0.129 h
[3]; rat, po, 5 mg/kg, Tmax of saxagliptin, co-administered with nicardipine, rat, po, SXG 5 mg/kg + NCD 15 mg/kg, mean ± SD
  Tmax: 0.464 ± 0.094 h
[3]; rat, po, 5 mg/kg, t1/2 of saxagliptin, alone, SXG 5 mg/kg alone, mean ± SD
  half-life: 1.82 ± 0.737 h
[3]; rat, po, 5 mg/kg, t1/2 of saxagliptin, co-administered with nicardipine, rat, po, SXG 5 mg/kg + NCD 15 mg/kg, mean ± SD
  half-life: 2.97 ± 1.23 h
[3]; rat, po, Cmax of saxagliptin, co-administered with nicardipine, rat, po, SXG 5 mg/kg + NCD 15 mg/kg, mean ± SD
  Cmax: 280 ± 147 ng/mL
[3]; rat, po, SXG 5 mg/kg alone, mean ± SD, listed as SXG
  AUCinf of saxagliptin, alone: 157 ± 23.1 ng·h/mL
[3]; rats, co-administration with nicardipine
  increase of plasma concentration of saxagliptin in vivo: more than 2 fold
hCYP3A5; human PBPK model input
  CLint hCYP3A5, input: 0.09 μL/min/pmol CYP
hCYP3A5; human
  CLint hCYP3A5, reference: 0.09 μL/min/pmol CYP
[4]; [12]
  Fraction unbound, rat, input: 0.82
[4]; saxagliptin, rat
  Fraction unbound, rat, reference: 0.82
[7]; saxagliptin 5 μM, 10 pmol CYP/mL, 1 mM NADPH, 37 °C
  CLint rCYP3A2, reference: 1.99 μL/min/pmol CYP
[7]; [12]
  CLint rCYP3A2, input: 1.99 μL/min/pmol CYP
CYP3A2
  half-life at 5 μM: 0.58 h
[8]; rat PBPK model input
  Renal clearance, rat, input: 38 mL/min/kg
[8]; rat
  Renal clearance, rat, reference: 38 mL/min/kg
[5]; saxagliptin, base, input of rat and human models
  pKa (compound type), input: 7.9 (base)
[5]; saxagliptin, base, rat and human models
  pKa (compound type), reference: 7.9 (base)
[5]; saxagliptin, pH 7, input of rat and human models
  Solubility (ref-pH), input: 17.6 (pH 7) mg/mL
[5]; saxagliptin, pH 7, rat and human models
  Solubility (ref-pH), reference: 17.6 (pH 7) mg/mL
[5]; saxagliptin, reference value for rat and human PBPK models
  Lipophilicity, reference: −0.35 logD7.4
hCYP3A4; human PBPK model input
  CLint hCYP3A4, input: 0.38 μL/min/pmol CYP
hCYP3A4; human
  CLint hCYP3A4, reference: 0.38 μL/min/pmol CYP
[6]; saxagliptin, rat and human models
  Specific intestinal permeability, reference: 2.73 10^−6 cm/s

— publication PMC10892660 (Pharmaceutics, 2024)
